According to US4440764A, “Water soluble esters of steroid-oxazole and pharmaceutical compositions containing them” (Gruppo Lepetit S.p.A., priority 1980, dated 1984):

Experiments:
Format in all cases: in vivo
Nystatin-induced oedema = Nystatin-induced oedema test (i.v.); details: antiinflammatory equivalent doses, at the 48th, 72nd, and 96th hours, vs prednisolone hemisuccinate and hydrocortisone hemisuccinate
[1] = tested on: hepatic neoglycogenetic activity; test: hepatic neoglycogenetic activity in adrenalectomized rats
[2] = tested on: carrageenin-induced oedema; test: carrageenin-induced oedema test in rats (i.v.)
endotoxin shock = test: protection against endotoxin shock in mice; details: Mus musculus, sc
Source text: (§1) In the protection against anaphylactic shock and endotoxin shock in mice, the following results have been obtained: […]

[3] = tested on: equilibrium sodium-potassium; test: mineralocorticoid effects in the adrenalectomized rats; details: at doses which provide the same pharmacological effect, vs prednisolone or hydrocortisone hemisuccinate
anaphylactic shock = test: protection against anaphylactic shock in mice; details: Mus musculus, ip
Source text: as §1

[4] = relative to hydrocortisone hemisuccinate
[5] = relative to prednisolone hemisuccinate

Row | SMILES | duration of antiphlogistic activity versus reference compounds (Nystatin-induced oedema) | hepatic neoglycogenetic activity, times more potent than hydrocortisone hemisuccinate [1, 4] [times] | hepatic neoglycogenetic activity, times more potent than prednisolone hemisuccinate [1, 5] | times more active than hydrocortisone hemisuccinate [2, 4] [times] | times more active than prednisolone hemisuccinate [2, 5] [times] | ED50 (endotoxin shock) [mg/kg] | mineralocorticoid effects (effect on equilibrium sodium-potassium) [3] | ED50 (anaphylactic shock) [mg/kg]
1 | CC1=NC2(C(=O)COC(=O)CCC(=O)O)C(CC3C4CCC5=CC(=O)C=CC5(C)C4C(O)CC32C)O1 (stereo not drawn) [Deflazacort hemisuccinate, 11β,21-dihydroxy-2'-methyl-5'H-pregna-1,4-dieno[17,16-d]oxazole-3,20-dione-21-hemisuccinate] | longer lasting antiphlogistic activity than the reference compounds | ~40 | about 5 times | 142 | 15 | 31 | affects the equilibrium sodium-potassium much less than prednisolone or hydrocortisone hemisuccinate | 22
2 | CC12CCC(=O)C=C1CCC1C2C(O)CC2(C)C1CCC2(O)C(=O)COC(=O)CCC(=O)O (stereo not drawn) [Hydrocortisone hemisuccinate, hydrocortisone hemisuccinate] |  |  |  |  |  | 180 |  | 143
3 | C[C@]12C=CC(=O)C=C1CC[C@@H]1[C@@H]2[C@@H](O)C[C@@]2(C)[C@H]1CC[C@]2(O)C(=O)COC(=O)CCC(=O)O [Prednisolone hemisuccinate, prednisolone hemisuccinate] |  |  |  |  |  | 50.5 |  | 35.5
